Reference: patent US10308620B2, “Muscarinic M1 receptor positive allosteric modulators” (SUVEN LIFE SCIENCES LIMITED, priority 2015, dated 2019)

How the values were obtained:
[1] = tested on: soluble amyloid precursor protein α (sAPPα); test: Cortical sAPPα levels in mice brain (ELISA); type: in vivo; settings: male C57BL/6J mice, 10 mg/kg, i.p., sixty minutes post treatment; FIG. 4
Description: (§1) Modulation of Soluble Amyloid Precursor Protein α (sAPPα) Levels in Cortex
Estimation of Cortical sAPPα Levels in Mice Brain
Male C57BL/6J mice ([…]) were randomly divided (n=8 group) into five groups. Control group of mice were intraperitoneally (i.p.) administered with vehicle (99.75% of 0.25% HEC HHX+0.25% tween 80) and the treatment group of mice received a single intraperitoneal injection of example 18 (dose volume of 10 mL/kg). Mice were sacrificed by cervical dislocation at 60 minutes after administration of test compound. Brains were quickly isolated and the cortex was dissected at −20° C. The cortex was immediately kept on a dry ice and weighed before being stored at −80° C. until quantification of sAPPα using Enzyme-linked immunosorbent assay (ELISA).
• 1. […]
(§2) To investigate the role of an acute treatment of test compound on sAPPα levels, the expression of this protein was measured in homogenates obtained from the cortex of treated and untreated rats by employing ELISA assay. […]
(§3) Statistical analyses were performed using the Graph Pad Prism (Version 4). Results are expressed as Mean±SEM levels of sAPPα expressed as percentage of control values (rats treated with vehicle). Statistical significance after treatment was assessed using One-Way ANOVA followed by Dunnett's post test and the significance level was set below p value less than 0.05.

[2] = tested on: soluble amyloid precursor protein α (sAPPα); test: Cortical sAPPα levels in rat brain (ELISA); type: in vivo; settings: male Wistar rats, 10 mg/kg, i.p., sixty minutes post treatment; FIG. 5
Description: as §1
Estimation of Cortical sAPPα Levels in Rat Brain
Male Wistar rats (250±40 grams) were randomly divided (n=8 group) into different treatment groups. Control group of rats were intraperitoneally (i.p.) administered with vehicle (99.75% of 0.25% HEC HHX+0.25% tween 80). Rats from treatment groups received a single intraperitoneal injection of test compound (dose volume of 2 mL/kg). Rats were sacrificed by cervical dislocation at 60 minutes after administration of test compound. Brains were quickly isolated and the cortex was dissected at −20° C. The cortex was immediately kept on a dry ice and weighed before being stored at −80° C. until quantification of sAPPα using Enzyme-linked immunosorbent assay (ELISA).
• 1. […]
as §2, §3

[3] = Rodent pharmacokinetic study; type: in vivo, rat; settings: male Wistar rats
Outline: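 Male Wistar rats (260±50 g, jugular-cannulated, n=3/group) dosed 3 mg/kg p.o. (fasted overnight) or 1 mg/kg i.v. Plasma sampled 0.08–24 h, quantified by LC-MS/MS (range ~1-1000 ng/mL). Cmax, Tmax, AUCt, T1/2, clearance, Vz and bioavailability derived by non-compartmental analysis.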

[4] = rat, plasma, iv, 1 mg/kg i.v. (bolus)
[5] = rat, plasma, 3 mg/kg oral (gavage)

AUC0-t ([3]; 1 mg/kg i.v. (bolus)): 929 ± 27 ng·h/mL | AUC0-t ([3]; 3 mg/kg oral (gavage)): 2070 ± 839 ng·h/mL | clearance [3, 4]: 17 ± 1 mL/min/kg | half-life [3, 4]: 2.1 ± 0.1 h | Vd ([3]; rat, plasma, iv, 1 mg/kg i.v. (bolus), read-out: Vz): 3.2 ± 0.1 L/kg | Cmax [3, 5]: 477 ± 96 ng/mL | Tmax [3, 5]: 0.42 ± 0.14 h | half-life [3, 5]: 3.9 ± 0.8 h | bioavailability ([3]; rat, plasma, 3 mg/kg oral vs 1 mg/kg i.v.): 74 ± 30%
SMILES: O=C(N[C@H]1CCCC[C@@H]1O)C1=CN(Cc2cccc(F)c2F)c2ccccc2O1 [Example 18, N-(cis-1S, 2S-2-Hydroxycyclohexyl)-4-(2,3-difluorobenzyl)-4H-benzo[1,4]oxazine-2-carboxamide]
mean increase in cortical sAPPα levels [1]: 38% | mean maximum increase in cortical sAPPα levels [2]: 26%
